Experimental data as given in patent US6083677A, “Photographic element containing yellow dye-forming photographic coupler” (Eastman Kodak Company, priority 1998, dated 2000).

Experiments:
[1] = Spectrophotometric response of dyes in dilute acetonitrile solution; format: physicochemical; settings: for Extinction: in M-1 cm-1 (unit assumed)
From the text: As mentioned previously, many characteristics of a photographic image depend upon the spectral response of the dyes forming that image. The greater the molar extinction of an image-forming dye the less silver is needed to produce that dye; lower silver laydowns may lead to sharper photographic images. The color of a dye depends upon the position of its maximum light absorption (λ-max). With yellow dyes, the deeper (more bathochromic) the λmax of the dye the more orange the color of the dye. Orange dyes cannot be employed to effectively reproduce bright lemon yellows, thus lighter yellow dyes arc preferred for better color reproduction. Finally, the ideal yellow dye absorbs only light in the blue portion of the visible spectrum; yellow dyes that absorb substantial amounts of green light appear desaturated and therefore yield poorer color reproduction. The bathochromic (long wavelength side) one-half bandwidth (B1/2BW) is a good measure of the degree of unwanted absorption of a yellow dye. The B1/2BW is the distance on the long wavelength side of the dye's spectral response curve, in nanometers, from the λmax to the wavelength of 1/2 the maximum absorption. The smaller the B1/2BW distance, the more sharp-cutting is the spectral response of a dye and the better the color reproduction available from the dye.
^a. Spectrophotometric data derived from dilute acetonitrile solution
of chromatographically homogenous dyes; see Table 3 for invention dye

[2] = Accelerated solution test of acid hydrolysis of yellow dyes (HPLC); format: physicochemical; parameters: kobs rate of hydrolysis: unit not given here; settings: 1 mM dye in 6% Triton X100, pH 2.0, phosphate buffer, 50° C.
Experimental: The hydrolytic stability or acid catalyzed decomposition of yellow azomethine dyes is an important pathway in the degradation of photographic images. It is believed that the stability of yellow dyes toward acidic hydrolysis is predictive of their stability in color photographic images.
The rates of hydrolysis of a variety of dyes have been measured using an accelerated solution test format. The dyes (1.0 mM dye in 6% Triton X-100®) in buffered acidic solutions (pH=2.0, μ=0.2, phosphate buffer) were held at 50° C. The rates of dye destruction were monitored using standard HPLC procedures.
^a. 1 mM dye in 6% Triton X100 ® (60 g/l octylphenoxy
polyethoxyethanols, Avg M.W. = 646) solution in pH 2.0, […],
phosphate buffer at 50° C.

Structure (SMILES) | B1/2BW (bathochromic one-half bandwidth) [1] [nm] | λmax [1] [nm] | Extinction [1] | kobs rate of hydrolysis [2] | t1/2 - time for 1/2 the dye to hydrolyze [2]
CCCCc1ccc(NC(=O)C(=Nc2ccc(N(CC)CCNS(C)(=O)=O)cc2C)C(=O)c2c(-c3ccccc3)n(C)c3ccc(C#N)cc23)cc1 [Coupler D-12] | 33 | 430 | 20,100 |  | 
CCCCc1ccc(NC(=O)C(=Nc2ccc(N(CC)CCNS(C)(=O)=O)cc2C)C(=O)c2c3c(n(C)c2-c2ccccc2)CCCC3)cc1 [Coupler D-9] | 34 | 422 | 19,300 |  | 
CCCCCCCCCCCCCCCCOC(=O)c1ccc(Cl)c(NC(=O)C(=Nc2ccc(N(CC)CCNS(C)(=O)=O)cc2C)C(=O)c2c(C)n(C)c3ccccc23)c1 [Coupler D-18] |  |  |  | 9.63 | 20 h
CCCCCCCCCCCCCCCCS(=O)(=O)Nc1ccc(Cl)c(NC(=O)C(=Nc2ccc(N(CC)CCNS(C)(=O)=O)cc2C)C(=O)C(C)(C)C)c1 [Cmp-11, reference compound] |  |  |  | 12.1 | 16 h
CCCCc1ccc(NC(=O)C(=Nc2ccc(N(CC)CCNS(C)(=O)=O)cc2C)C(=O)c2c3n(c4ccccc24)CCCC3)cc1 [Coupler D-6] | 38 | 426 | 17,300 |  | 
CCCCc1ccc(NC(=O)C(=Nc2ccc(N(CC)CCNS(C)(=O)=O)cc2C)C(=O)c2c(-c3ccccc3)c3ccccc3n2C)cc1 [Coupler D-14] | 46 | 438 | 11,900 |  | 
CCCCCCCCCCCCNS(=O)(=O)c1ccc(NC(=O)C(=Nc2ccc(N(CC)CCNS(C)(=O)=O)cc2C)C(=O)c2c(-c3ccccc3)n(C)c3ccccc23)c(Cl)c1 [Coupler D-17] |  |  |  | 0.31 | 610 h
CCCCCCCCCCCCS(=O)(=O)c1ccc(NC(=O)C(=Nc2ccc(N(CC)CCNS(C)(=O)=O)cc2C)C(=O)c2c(-c3ccccc3)n(C)c3ccccc23)c(Cl)c1 [Coupler D-15] |  |  |  | 0.17 | 1,150 hr
CCCCCCCCCCCCOC(=O)c1ccc(Cl)c(NC(=O)C(=Nc2ccc(N(CC)CCNS(C)(=O)=O)cc2C)C(=O)C(C)(C)C)c1 [Cmp-10, reference compound] |  |  |  | 5.57 | 35 h
CCCCCCCCCCCCn1c(-c2ccccc2)c(C(=O)C(=Nc2ccc(N(CC)CCNS(C)(=O)=O)cc2C)C(=O)Nc2ccc(S(C)(=O)=O)cc2Cl)c2ccccc21 [Coupler D-16] |  |  |  | 0.38 | 500 h
CCCCc1ccc(NC(=O)C(=Nc2ccc(N(CC)CCNS(C)(=O)=O)cc2C)C(=O)c2c(-c3ccccc3)n(-c3ccccc3)c3ccccc23)cc1 [Coupler D-8] | 33 | 426 | 16,600 |  | 
CCCCc1ccc(NC(=O)C(=Nc2ccc(N(CC)CCNS(C)(=O)=O)cc2C)C(=O)c2c(-c3ccccc3)[nH]c3ccccc23)cc1 [Coupler D-7] | 35 | 430 | 14,100 |  | 
CCCCCCCCCCCCCCCCOC(=O)c1ccc(Cl)c(NC(=O)C(=Nc2ccc(N(CC)CCNS(C)(=O)=O)cc2C)C(=O)c2c(C3CCCCC3)n(C)c3ccccc23)c1 [Coupler D-19] |  |  |  | 1.91 | 101 h
CCCCCCCCCCCCCCCCCCOc1ccc(S(=O)(=O)Nc2ccccc2Cl)cc1NC(=O)C(=Nc1ccc(N(CC)CCNS(C)(=O)=O)cc1C)C(=O)N1CCc2ccccc21 [Cmp-6, reference compound] |  |  |  | 2.48 | 78 h
CCCCc1ccc(NC(=O)C(=Nc2ccc(N(CC)CCNS(C)(=O)=O)cc2C)C(=O)c2c(-c3ccccc3)oc3ccccc23)cc1 [Coupler D-13] | 47 | 444 | 13,400 |  | 
CCCCc1ccc(NC(=O)C(=Nc2ccc(N(CC)CCNS(C)(=O)=O)cc2C)C(=O)c2c(-c3ccccc3)n(C)c3ccc(OC)cc23)cc1 [Coupler D-11] | 33 | 426 | 21,300 |  | 

More lines, now with the values ahead:

B1/2BW (bathochromic one-half bandwidth) [1] [nm] | λmax [1] [nm] | Extinction [1] | kobs rate of hydrolysis [2] | t1/2 - time for 1/2 the dye to hydrolyze [2] | Structure (SMILES)
39 | 428 | 13,500 |  |  | CCCCc1ccc(NC(=O)C(=Nc2ccc(N(CC)CCNS(C)(=O)=O)cc2C)C(=O)c2cn(C)c3ccccc23)cc1 [Coupler D-3]
37 | 428 | 16,800 |  |  | CCCCc1ccc(NC(=O)C(=Nc2ccc(N(CC)CCNS(C)(=O)=O)cc2C)C(=O)c2c(C3CCCCC3)n(C)c3ccccc23)cc1 [Coupler D-5]
37 | 426 | 10,000 |  |  | CCCCc1ccc(NC(=O)C(=Nc2ccc(N(CC)CCNS(C)(=O)=O)cc2C)C(=O)c2c(C)[nH]c3ccccc23)cc1 [Coupler D-2]
42 | 430 | 12,800 |  |  | CCCCc1ccc(NC(=O)C(=Nc2ccc(N(CC)CCNS(C)(=O)=O)cc2C)C(=O)c2ccn(-c3ccccc3)c2)cc1 [Cmp-1, reference compound]
40 | 428 | 13,900 |  |  | CCCCc1ccc(NC(=O)C(=Nc2ccc(N(CC)CCNS(C)(=O)=O)cc2C)C(=O)c2cn(-c3ccccc3)cc2C)cc1 [Cmp-2, reference compound]
37 | 428 | 16,200 |  |  | CCCCc1ccc(NC(=O)C(=Nc2ccc(N(CC)CCNS(C)(=O)=O)cc2C)C(=O)c2c(C)n(C)c3ccccc23)cc1 [Coupler D-4]
40 | 434 | 12,600 |  |  | CCCCc1ccc(NC(=O)C(=Nc2ccc(N(CC)CCNS(C)(=O)=O)cc2C)C(=O)c2ccn(-c3ccccc3)c2C)cc1 [Cmp-4, reference compound]
40 | 426 | 13,700 |  |  | CCCCc1ccc(NC(=O)C(=Nc2ccc(N(CC)CCNS(C)(=O)=O)cc2C)C(=O)c2cccn2-c2ccccc2)cc1 [Cmp-3, reference compound]
42 | 428 | 11,800 |  |  | CCCCc1ccc(NC(=O)C(=Nc2ccc(N(CC)CCNS(C)(=O)=O)cc2C)C(=O)C(C)(C)C)cc1 [Cmp-7, reference compound]
35 | 424 | 17,700 |  |  | CCCCc1ccc(NC(=O)C(=Nc2ccc(N(CC)CCNS(C)(=O)=O)cc2C)C(=O)c2c3c(n(C)c2-c2ccccc2)CCC3)cc1 [Coupler D-10]
32 | 426 | 19,700 |  |  | CCCCc1ccc(NC(=O)C(=Nc2ccc(N(CC)CCNS(C)(=O)=O)cc2C)C(=O)c2c(-c3ccccc3)n(C)c3ccccc23)cc1 [Coupler D-1]
